Measurements taken from paper PMC11026381, “Late-stage meta-C–H alkylation of pharmaceuticals to modulate biological properties and expedite molecular optimisation in a single step” (Nature Communications, 2024).
≈ marks a conversion by molar mass, not a printed value.

How the values were obtained:
[1] = Octanol/water partitioning (LogD), shake-flask method; type: physicochemical; details: n = 1; for logD: 1-octanol/phosphate buffer, pH 7.4, 1-octanol / phosphate buffer pH 7.4, 20 °C; for LogD (octanol): 1-octanol / phosphate buffer pH 7.4, 20 °C
From the text: (§1) 5. Pharmaceutically relevant properties modulation
(§2) Product analogues 5e, 6a-6k obtained after late-stage meta-C–H alkylation of the pharmaceutically active compound Emapunil (4e) were subjected to a range of fundamental in vitro drug discovery assays. To prevent hydrolysis of ester groups present on these analogues during biological testing (in order to compare the clearance and metabolic stability between these drug derivatives), their corresponding free acids 5e’, 6a’-6k’ were synthesised (see page S54) and subjected to similar assays.
(§3) The experimental methods used for these physicochemical & drug metabolism and pharmacokinetics (DMPK) assays are described below 11. […]
Octanol/water partitioning (LogD)
Partitioning of compounds between 1 -octanol and phosphate buffer (0.1 M, pH 7.4) at 20 °C were determined using a modified version of the shake -flask method described by Leo et al13. Compounds were dissolved in a 96 -well plate, in 400 μL octanol, and 400 μL of buffer was added to each well. The plate was vigorously stirred for 5 min and then put on an Edmund Bühler shaker (Edmund Bühler GmbH, Hechingen, Germany) at 20 °C for 18 hours. Aliquots of 5 μL octanol were transferred and diluted with 495 μL MeCN/H2O (1:1) and, to avoid contamination of the buffer, the rest of the octanol was removed before 150 μL of buffer samples were transferred. Octanol and buffer samples were diluted with MeCN/H2O (1:1) in four steps of 10 times to yield octanol samples diluted 10 2 to 106 times and buffer samples diluted 1 to 104 times. LC-MS/MS (Waters Xevo-TQS) was used for analysis, and distribution coefficient at pH 7.4 (LogD7.4) was calculated from the integrated peak areas of the samples in the linear MS response range. LogD7.4 results were reported as median values. […]

[2] = Fraction unbound in human plasma (Prot. Bind.), equilibrium dialysis; type: in vitro ADME; details: 5 μM, dialysis at 37 °C for 18 hours
From the text: as §1, §2, §3
Fraction unbound in human plasma (Prot. Bind.)
Equilibrium dialysis of compounds was used to assess the fraction unbound in human plasma. Stock solutions of compounds dissolved in DMSO were pooled into cassettes with up to 10 compounds in each cassette with a concentration of 1 mM. The pooled stock solutions were diluted in plasma to a compound concentration of 5 μM. Warfarin, propranolol and metoprolol were used as reference compounds in each run. The equilibrium dialysis device (RED, Thermo Fischer Scientific Inc., Rockford, USA) was used for dialysis against phosphate buffer (pH 7.4) at 37 °C for 18 hours. Calibration curves ranging from 0.001 to 7 μM were made using aliquots of the 7 μM spiked plasma pools that were transferred to a new plate followed by serial dilutions with blank plasma. Calibration curve samples and dialysis samples were precipitated with MeCN and after centrifugation, supernatants were removed and analysed using LC-MS/MS (Waters Xevo-TQS). Fraction unbound in the incubation was calculated as the concentration in the media buffer sample divided by the concentration in the plasma sample. The fraction unbound was reported as the median value.

[3] = Metabolic stability in human liver microsomes (CLint HLM); type: in vitro ADME; details: 1 mg/mL microsomal protein, 1 mM NADPH, 37 °C; for microsomal CLint at 1 μM: both sexes, human, liver microsomes, pH 7.4, measured on the labelled compound itself, n = 1, read-out: CLint HLM (intrinsic clearance in human liver microsomes); for CLint HLM (intrinsic clearance in human liver microsomes): measured on the labelled compound itself, 1 μM, n = 1
Procedure: Metabolic stability in human liver microsomes (CLint HLM)
Human liver microsomes were defrosted on ice and diluted to 1 mg/mL of microsomal protein in phosphate buffer (0.1 M, pH 7.4). Compounds at 1 μM were incubated with the liver microsome suspensions and 1 mM NADPH at 37 °C in a 96-well plate. At 0.5, 5, 10, 15, 20 and 30 min, aliquots of 30 μL were transferred to a 96-well plate containing 120 μL MeCN. This plate was centrifuged for 20 min and supernatant was removed and diluted with H2O (1:1) before analysis by LC-MS/MS (Waters Xevo-TQS). Peak areas were determined from extracted ion chromatograms, and the in vitro intrinsic clearance (in vitro CLint, in μL/min/mg microsomal protein) of parent compound was calculated from the slope in the regression analysis of the natural logarithm of parent concentration vs. time curve.
Human Liver Microsomes (InVitroCYPTM 150-Donor, Mixed Gender) were harvested and supplied by BioIVT (Product No. X008070, Lot No. QQY). […]
(§4) The modulation of pharmaceutically relevant properties on meta-C–H alkylation is shown below in Supplementary Fig. 68, with a selection of physicochemical and DMPK data including solubility , LogD, human plasma protein binding (Prot. Bind.) and intrinsic clearance (CLint) in human liver microsomes (HLM) or rat hepatocytes (Rat Hep.) .

[4] = Metabolic stability in male Han Wistar rat hepatocytes (CLint Rat Hep.); type: in vitro ADME; details: measured on the labelled compound itself, 1 μM, 10^6 viable cells/mL, 37 °C, n = 1
Procedure: Metabolic stability in male Han Wistar rat hepatocytes (CLint Rat Hep.) Hepatocyte metabolic stability was determined in accordance with the method described by Jacobson et al14. Cryopreserved hepatocytes at a concentration of 10 6 viable cells/mL were used. After thawing, hepatocytes were incubated for 10 min to warm to 37 °C, and compounds dissolved in MeCN were […]
incubation system was mixed and 20 μL aliquots were transferred at each time point to wells in a separate plate filled with 80 μL MeCN to stop the reaction. The quenching plate was then vortexed followed by centrifugation, and supernatants were analysed by LC-MS/MS (Waters Xevo-TQS). Peak areas were determined from extracted ion chromatograms, and the in vitro intrinsic clearance (in vitro CLint, in μL/min/10^6 cells) of parent compound was calculated from the slope in the regression analysis of the natural logarithm of parent concentration vs. time curve. Rat Hepatocytes (Cryosuspension, Male Wistar Hannover ) were harvested and s upplied by BioIVT (Product No. M00065, Lot No. DVO).
as §4

[5] = Thermodynamic solubility, shake-flask approach, phosphate buffer pH 7.4; type: physicochemical; details: pH 7.4, phosphate buffer 0.1 M, 20 °C, n = 1
From the text: as §1, §2
The experimental methods used for these physicochemical & drug metabolism and pharmacokinetics (DMPK) assays are described below 11.
This method measures the thermodynamic solubility of compounds based on a shake-flask approach12.
The nature of the solid state was unknown in these experiments and may be subject to variability. The compounds were dissolved in DMSO (30 μL, 10 mM) in glass vials, and were dried using a Genevac vacuum evaporator (Genevac Ltd, Ipswich, UK). When the samples were dry, 300 μL of phosphate buffer (0.1 M, pH 7.4) was added to the glass vials. The vials were put on an Edmund Bühler shaker (Edmund Bühler GmbH, Hechingen, Germany) at 20 °C for 18 hours. Samples were filtered through a Whatman GF/B 96-well filter and 20 μL of filtrated samples were transferred to separate wells in a plate containing 180 μL MeCN/H2O (1:1). Standards were prepared by diluting the 10 mM compound solutions with MeCN/H2O (1:1) to 200 μM. Three further dilution steps of 10 times were applied to both the samples and standards and they were all analy sed by LC-MS/MS (Waters Xevo-TQS). Solubility was determined using the integrated peak areas of the samples in the linear MS response range. […]

[6] = aqueous buffer, thermodynamic from solid

Row | SMILES | logD [1] | Prot. Bind. (% free), human plasma protein binding ([2]; n = 1) [% free] | microsomal CLint at 1 μM [3] [µL/min/mg] | CLint Rat Hep. (intrinsic clearance in rat hepatocytes) [4] [μL/min/10^6] | solubility at 18 h [5, 6] [µM] | LogD (octanol) [1] | Prot. Bind. (% free), human plasma protein binding ([2]; n = 1, listed as 5e’) [% free] | CLint HLM (intrinsic clearance in human liver microsomes) [3] [µL/min/mg] | CLint Rat Hep. (intrinsic clearance in rat hepatocytes) ([4]; listed as 5e’) [μL/min/10^6] | solubility at 18 h [5] [µM] | CLint Rat Hep. (intrinsic clearance in rat hepatocytes) ([4]; listed as 6a’) [μL/min/10^6] | Prot. Bind. (% free), human plasma protein binding ([2]; n = 1, listed as 6b’) [% free] | CLint Rat Hep. (intrinsic clearance in rat hepatocytes) ([4]; listed as 6b’) [μL/min/10^6] | CLint Rat Hep. (intrinsic clearance in rat hepatocytes) ([4]; listed as 6c’) [μL/min/10^6] | Prot. Bind. (% free), human plasma protein binding ([2]; n = 1, listed as 6e’) [% free] | CLint Rat Hep. (intrinsic clearance in rat hepatocytes) ([4]; listed as 6e’) [μL/min/10^6] | CLint Rat Hep. (intrinsic clearance in rat hepatocytes) ([4]; listed as 6f’) [μL/min/10^6]
1 | CCN(Cc1ccccc1)C(=O)Cn1c(=O)n(C)c2cnc(-c3ccccc3)nc21 [4e, emapunil, reference compound] | 3.2 | 0.8 | 218 | 164 | 6 (≈ 2.41 µg/mL) | – | – | – | – | – | – | – | – | – | – | – | –
2 | CCOC(=O)C1(c2cccc(-c3ncc4c(n3)n(CC(=O)N(CC)Cc3ccccc3)c(=O)n4C)c2)CCC1 [5e] | 4.4 | 0.4 | > 300 | > 300 | 17 (≈ 8.97 µg/mL) | 0.7 | 2.0 | 5.5 | 15.9 | > 1000 | – | – | – | – | – | – | –
3 | CCOC(=O)Cc1cccc(-c2ncc3c(n2)n(CC(=O)N(CC)Cc2ccccc2)c(=O)n3C)c1 [6a] | 3.3 | 12.0 | > 300 | > 300 | 41 (≈ 20 µg/mL) | -0.5 | – | < 3.0 | – | 924 (≈ 451 µg/mL) | 10.5 | – | – | – | – | – | –
4 | CCOC(=O)C(C)(C)c1cccc(-c2ncc3c(n2)n(CC(=O)N(CC)Cc2ccccc2)c(=O)n3C)c1 [6b] | 4.2 | 0.8 | > 300 | > 300 | 8 (≈ 4.12 µg/mL) | 0.5 | – | 11.1 | – | > 1000 | – | 3.0 | 10.3 | – | – | – | –
5 | CCN(Cc1ccccc1)C(=O)Cn1c(=O)n(C)c2cnc(-c3cccc(C4(C(=O)OC)CC4)c3)nc21 [6c] | 3.3 | 6.6 | > 300 | > 300 | 51 (≈ 25.5 µg/mL) | 0.3 | – | < 3.0 | – | 965 (≈ 482 µg/mL) | – | – | – | 36.2 | – | – | –
6 | CCN(Cc1ccccc1)C(=O)Cn1c(=O)n(C)c2cnc(-c3cccc(C4(C#N)CCC4)c3)nc21 [6d] | 3.9 | 0.5 | > 300 | > 300 | 50 (≈ 24 µg/mL) | – | – | – | – | – | – | – | – | – | – | – | –
7 | CCN(Cc1ccccc1)C(=O)Cn1c(=O)n(C)c2cnc(-c3cccc(C4(C(=O)OC)CCCC4)c3)nc21 [6e] | 4.3 | 0.4 | > 300 | > 300 | 36 (≈ 19 µg/mL) | 1.4 | – | < 3.0 | – | 864 (≈ 456 µg/mL) | – | – | – | – | 0.7 | 51.0 | –
8 | CCOC(=O)C(F)(F)c1cccc(-c2ncc3c(n2)n(CC(=O)N(CC)Cc2ccccc2)c(=O)n3C)c1 [6f] | 4.3 | 3.3 | > 300 | > 300 | 12 (≈ 6.28 µg/mL) | -0.4 | – | 4.0 | – | 852 (≈ 446 µg/mL) | – | – | – | – | – | – | 6.8
